{"source": "patent US6653296B1", "about": "“Antiretroviral enantiomeric nucleotide analogs” (Institute of Organic Chemistry and Biochemistry of the …, priority 1992, dated 2003)", "key": {"C3H/3T3 cells": {"system": "C3H/3T3 cells", "assay": "Microscopic alteration of C3H/3T3 cell culture morphology", "assay_type": "cell-based, murine", "details": "concentration that results in a microscopic alteration of the C3H/3T3 cell culture morphology"}, "[1]": {"system": "Moloney murine sarcoma virus (MSV)", "assay": "MSV-induced tumor formation and death in newborn NMRI mice, intraperitoneal administration", "assay_type": "in vivo", "details": "for Mean day of animal death: observed 20 days", "procedure": "Two gram newborn NMRI mice were injected intramuscularly in the left hind leg with 50 μl of 250-fold diluted stock preparation of Moloney murine sarcoma virus. […] Another group of mice (20 animals) was administered RPMI-1640 medium as placebo. All compounds were solubilized in RPMI-1640 medium. The mice were observed daily for 20 days and the day of tumor initiation and the day of animal death was recorded for each animal. Statistical analyses were performed by calculating the standard deviation."}, "retrovirus": {"system": "retrovirus", "assay": "Anti-retrovirus activity in vitro, conclusions on Table 1 (HIV-1, HIV-2, MSV)", "assay_type": "cell-based"}, "herpes viruses": {"system": "herpes viruses", "details": "racemic mixtures, prior art; cited from earlier work"}, "HIV-1": {"system": "HIV-1", "assay": "HIV-1 induced cytopathicity in MT-4 cells", "assay_type": "cell-based, human immunodeficiency virus type 1", "details": "for EC50 HIV-1: concentration required to inhibit HIV-induced cytopathicity in MT-4 cells by 50%, 5 days", "procedure": "(§1) The activity of the compounds against HIV-1 and HIV-2 induced cytopathicity was examined in human lymphocyte MT-4 cells. […] The infected cell cultures were then incubated at 37° C. for 5 days in a humidified CO2-controlled incubator. Then, the cytopathicity of the virus was examined by determination of MT-4 cell viability by trypan blue dye staining."}, "HIV-2": {"system": "HIV-2", "assay": "HIV-2 induced cytopathicity in MT-4 cells", "assay_type": "cell-based, human immunodeficiency virus type 2", "details": "for EC50 HIV-2: concentration required to inhibit HIV-induced cytopathicity in MT-4 cells by 50%, 5 days", "procedure": "as §1"}, "MT-4 cells": {"system": "MT-4 cells", "assay": "MT-4 cell viability (trypan blue)", "assay_type": "cell-based, human", "procedure": "The activity of the compounds against HIV-1 and HIV-2 induced cytopathicity was examined in human lymphocyte MT-4 cells. […]. The infected cell cultures were then incubated at 37° C. for 5 days in a humidified CO2-controlled incubator. Then, the cytopathicity of the virus was examined by determination of MT-4 cell viability by trypan blue dye staining. The results are summarized in Table 1 in comparison with the data on the prototype compounds."}, "[2]": {"system": "Moloney murine sarcoma virus (MSV)", "assay": "MSV-induced tumor formation in NMRI mice, oral administration", "assay_type": "in vivo", "procedure": "Three-week-old NMRI mice (about 10 grams body weight) were injected intramuscularly in the left hind leg with 50 μl of 20-fold diluted stock preparation of Moloney murine sarcoma virus. Starting 2-4 hours before virus infection, six animals received an orally administered test compound twice a day at 100 mg/kg(total dose) daily for five subsequent days. The control (placebo) group consisted of 14 animals. The experiment was evaluated as described in Example 35."}, "[3]": {"system": "Moloney murine sarcoma virus (MSV)", "assay": "MSV-induced transformation of C3H/3T3 cells", "assay_type": "cell-based", "details": "concentration required to inhibit MSV-induced C3H/3T3 cell transformation by 50%; day 6", "procedure": "The cells were seeded in 1-ml-wells of a 48-well microtiter plate and exposed to 80 PFU (plaque forming units) for 60-90 minutes. Then, the virus was removed and culture medium containing appropriate concentrations of the test compounds were added (1 ml per well). At day 6 post infection, MSV-induced transformation of the cell culture was examined microscopically."}, "[4]": {"details": "twice a day, 100 mg/kg total daily dose for five days"}}, "note": "Where two headings read alike, the source gives them in different places. Marks after values point to notes of the source that are not given here.", "data": [{"molecule": "C[C@@H](Cn1cnc2c(N)ncnc21)OCP(=O)(O)O", "note": "[(S)-PMPA, 9-(S)-(2-Phosphonomethoxypropyl)adenine]", "values": [{"measurement": "MIC", "setting": "C3H/3T3 cells", "value": ">100", "unit": "µg/mL"}, {"measurement": "antiretroviral activity in vivo (in words)", "setting": "[1]; i.p. dose of 50 mg/kg", "value": "no marked antiretroviral activity"}, {"measurement": "Mean day of animal death", "setting": "[1]; single i.p. dose 10 mg/kg", "value": "10.9 ± 0.88", "unit": "days"}, {"measurement": "Mean day of animal death", "setting": "[1]; single i.p. dose 20 mg/kg", "value": "10.9 ± 0.88", "unit": "days"}, {"measurement": "Mean day of animal death", "setting": "[1]; single i.p. dose 50 mg/kg", "value": "12.4 ± 0.84", "unit": "days"}, {"measurement": "antiretroviral activity in vitro (in words)", "setting": "retrovirus", "value": "devoid of marked antiretroviral activity"}]}, {"molecule": "CC(Cn1cnc2c(=O)[nH]c(N)nc21)OCP(=O)(O)O", "note": "(stereo not drawn) [PMPG]", "values": [{"measurement": "antiherpetic effect (in words)", "setting": "herpes viruses", "value": "due to its substantial cytotoxicity"}]}, {"molecule": "C[C@H](Cn1cnc2c(N)nc(N)nc21)OCP(=O)(O)O", "note": "[(R)-PMPDAP, 9-(R)-(2-Phosphonomethoxypropyl)-2,6-diaminopurine]", "values": [{"measurement": "selectivity index (ratio cytotoxic dose/antivirally active dose) for HIV-1", "setting": "HIV-1; MT-4 cells", "value": "> 2 000"}, {"measurement": "selectivity index (ratio cytotoxic dose/antivirally active dose) for HIV-2", "setting": "HIV-2; MT-4 cells", "value": "> 2 000"}, {"measurement": "toxicity to the cells", "setting": "MT-4 cells; at 100 μg/ml", "value": "non-toxic"}, {"measurement": "MIC", "setting": "C3H/3T3 cells", "value": ">100", "unit": "µg/mL"}, {"measurement": "in vivo anti-MSV activity relative to (R)-PMPA", "setting": "[1]; i.p.", "value": "five-fold superior over (R)-PMPA"}, {"measurement": "inhibiting tumor initiation and prolonging the life-span of MSV-infected mice (in words)", "setting": "[1]; i.p.", "value": "highly effective"}, {"measurement": "percentage of MSV-infected mice still alive at day 20 post infection", "setting": "[1]; single i.p. dose 2 mg/kg", "value": 70, "unit": "%"}, {"measurement": "percentage of MSV-infected mice without tumor at day 20 post infection", "setting": "[1]; single i.p. dose 2 mg/kg", "value": 36, "unit": "%"}, {"measurement": "Mean day of animal death", "setting": "[1]; single i.p. dose 2 mg/kg", "value": 15, "unit": "days"}, {"measurement": "percentage of MSV-infected mice still alive at day 20 post infection", "setting": "[1]; single i.p. dose 5 mg/kg", "value": 90, "unit": "%"}, {"measurement": "Mean day of animal death", "setting": "[1]; single i.p. dose 5 mg/kg", "value": 16.5, "unit": "days"}, {"measurement": "percentage of MSV-infected mice still alive at day 20 post infection", "setting": "[1]; single i.p. dose 10 mg/kg", "value": 90, "unit": "%"}, {"measurement": "Mean day of animal death", "setting": "[1]; single i.p. dose 10 mg/kg", "value": 18.5, "unit": "days"}, {"measurement": "percentage of MSV-infected mice still alive at day 20 post infection", "setting": "[1]; single i.p. dose 20 mg/kg", "value": 95, "unit": "%"}, {"measurement": "Mean day of animal death", "setting": "[1]; single i.p. dose 20 mg/kg", "value": 18, "unit": "days"}, {"measurement": "protection of the animals against MSV-induced tumor development", "setting": "[1]; single i.p. dose of 10-20 mg/kg", "value": "90-95%"}, {"measurement": "increase of the mean day of tumor initiation", "setting": "[2]; 100 mg/kg/day", "value": 50, "unit": "%"}, {"measurement": "Mean day of tumor initiation", "setting": "[2]; [4]", "value": "7.5 ± 1.0*^) day"}, {"measurement": "Number of mice developing tumor (%)", "setting": "[2]; [4]", "value": 67, "unit": "%"}]}, {"molecule": "C[C@H](Cn1cnc2c(N)ncnc21)OCP(=O)(O)O", "note": "[(R)-PMPA, 9-(R)-(2-Phosphonomethoxypropyl)adenine]", "values": [{"measurement": "toxicity to the cells", "setting": "MT-4 cells", "value": "non-toxic"}, {"measurement": "MIC", "setting": "C3H/3T3 cells", "value": ">100", "unit": "µg/mL"}, {"measurement": "inhibiting tumor initiation and prolonging the life-span of MSV-infected mice (in words)", "setting": "[1]; i.p.", "value": "highly effective"}, {"measurement": "Mean day of animal death", "setting": "[1]; single i.p. dose 2 mg/kg", "value": "12.6 ± 1.26", "unit": "days"}, {"measurement": "Mean day of animal death", "setting": "[1]; single i.p. dose 5 mg/kg", "value": "14.4 ± 0.47", "unit": "days"}, {"measurement": "Mean day of animal death", "setting": "[1]; single i.p. dose 10 mg/kg", "value": "18.3 ± 1.10", "unit": "days"}, {"measurement": "percentage of MSV-infected mice still alive at day 20 post infection", "setting": "[1]; single i.p. dose 20 mg/kg", "value": 100, "unit": "%"}, {"measurement": "Mean day of animal death", "setting": "[1]; single i.p. dose 20 mg/kg", "value": "> 20", "unit": "days"}, {"measurement": "percentage of MSV-infected mice still alive at day 20 post infection", "setting": "[1]; single i.p. dose 50 mg/kg", "value": 100, "unit": "%"}, {"measurement": "Mean day of animal death", "setting": "[1]; single i.p. dose 50 mg/kg", "value": "> 20", "unit": "days"}, {"measurement": "protection against MSV-induced tumor development (in words)", "setting": "[1]; single i.p. dose of 50 mg/kg", "value": "full protection"}, {"measurement": "increasing the mean day of tumor initiation and animal death (in words)", "setting": "[1]; single i.p. dose of 10-50 mg/kg", "value": "markedly effective"}, {"measurement": "concentration markedly inhibitory to retrovirus replication", "setting": "retrovirus; in vitro, summary of Table 1", "value": "1 to 2", "unit": "µg/mL"}]}, {"molecule": "C[C@H](Cn1nnc2c(N)ncnc21)OCP(=O)(O)O", "note": "[(R)-9-PMP-8-azaA, 9-(R)-(2-Phosphonomethoxypropyl)-8-azaadenine]", "values": [{"measurement": "EC50 HIV-1", "setting": "HIV-1", "value": 2.42, "unit": "µg/mL"}, {"measurement": "EC50 HIV-2", "setting": "HIV-2", "value": 1.75, "unit": "µg/mL"}, {"measurement": "EC50 MSV", "setting": "[3]", "value": 0.43, "unit": "µg/mL"}]}, {"molecule": "C[C@H](Cn1cnc2c(NCc3ccccc3)nc(N)nc21)OCP(=O)(O)O", "note": "[(R)-9-PMP-6-benzyl-DAP, 9-(R)-(2-Phosphonomethoxypropyl)-2-amino-6-benzylaminopurine]", "values": [{"measurement": "EC50 HIV-1", "setting": "HIV-1", "value": 10.3, "unit": "µg/mL"}, {"measurement": "EC50 HIV-2", "setting": "HIV-2", "value": 8, "unit": "µg/mL"}, {"measurement": "EC50 MSV", "setting": "[3]", "value": 0.3, "unit": "µg/mL"}]}, {"molecule": "C[C@H](Cn1cnc2c(S)nc(N)nc21)OCP(=O)(O)O", "note": "[(R)-9-PMP-6-thioG, 9-(R)-(2-Phosphonomethoxypropyl)-2-amino-6-thiopurine]", "values": [{"measurement": "EC50 HIV-1", "setting": "HIV-1", "value": ">100", "unit": "µg/mL"}, {"measurement": "EC50 HIV-2", "setting": "HIV-2", "value": ">100", "unit": "µg/mL"}, {"measurement": "EC50 MSV", "setting": "[3]", "value": 3.94, "unit": "µg/mL"}]}, {"molecule": "C[C@H](Cn1cnc2c(N3CCOCC3)nc(N)nc21)OCP(=O)(O)O", "note": "[(R)-9-PMP-6-morpholino-DAP, 9-(R)-(2-Phosphonomethoxypropyl)-2-amino-6-morpholinopurine]", "values": [{"measurement": "EC50 HIV-1", "setting": "HIV-1", "value": ">100", "unit": "µg/mL"}, {"measurement": "EC50 HIV-2", "setting": "HIV-2", "value": ">100", "unit": "µg/mL"}, {"measurement": "EC50 MSV", "setting": "[3]", "value": 6.1, "unit": "µg/mL"}]}]}
